The target in assay [1] is T1, recombinant human HDAC-1 enzyme (rHDAC-1) (Homo sapiens, UniProt Q13547).
T1 construct: made in house; host or cells: Baculovirus insect cell expression system
Nature of the assay: Histone deacetylase inhibition, recombinant human HDAC-1. The format is biochemical. The conditions noted are these: cloned recombinant human HDAC-1, Baculovirus insect cell expression; read-out: rHDAC-1 IC50. The method, then: (§1) The reaction was stopped by adding acetic acid (0.04 M, final concentration) and HCl (250 mM, final concentration). The mixture was extracted with ethyl acetate and the released [^3H]-acetic acid was quantified by scintillation counting. For inhibition studies, the enzyme was preincubated with compounds at 4° C. for 30 minutes prior to initiation of the enzymatic assay. IC50 values for HDAC enzyme inhibitors were determined by performing dose response curves with individual compounds and determining the concentration of inhibitor producing fifty percent of the maximal inhibition.

Assay [2] has as its system histone deacetylase enzyme in nuclear extracts from H446 cells (pooled HDACs). Description: Histone deacetylase inhibition, H446 nuclear extracts (pooled HDACs). In kind it is biochemical, human. The conditions noted are these: for IC50: H446 nuclear extract, [3H]-acetylated histone substrate; for pooled HDACs percent inhibition: percent inhibition at 20 μM (footnote). The procedure:
HDAC inhibitors were screened against histone deacetylase enzyme in nuclear extracts prepared from the human small cell lung cancer cell line H446 (ATTC HTB-171) and against a cloned recombinant human HDAC-1 enzyme expressed and purified from a Baculovirus insect cell expression system.
as §1, with “For deacetylase assays, 20,000 cpm of the [^3H]-metabolically labeled acetylated histone substrate (M. Yoshida et al., J. Biol. Chem. 265(28): 17174-17179 (1990)) was incubated with 30 μg of H446 nuclear extract or an equivalent amount of the cloned recombinant hHDAC-1 for 10 minutes at 37° C. The reaction” for “The reaction”

In general, IC50 refers to the concentration needed to halve the response being measured.

T1 sequence (Q13547 whole entry): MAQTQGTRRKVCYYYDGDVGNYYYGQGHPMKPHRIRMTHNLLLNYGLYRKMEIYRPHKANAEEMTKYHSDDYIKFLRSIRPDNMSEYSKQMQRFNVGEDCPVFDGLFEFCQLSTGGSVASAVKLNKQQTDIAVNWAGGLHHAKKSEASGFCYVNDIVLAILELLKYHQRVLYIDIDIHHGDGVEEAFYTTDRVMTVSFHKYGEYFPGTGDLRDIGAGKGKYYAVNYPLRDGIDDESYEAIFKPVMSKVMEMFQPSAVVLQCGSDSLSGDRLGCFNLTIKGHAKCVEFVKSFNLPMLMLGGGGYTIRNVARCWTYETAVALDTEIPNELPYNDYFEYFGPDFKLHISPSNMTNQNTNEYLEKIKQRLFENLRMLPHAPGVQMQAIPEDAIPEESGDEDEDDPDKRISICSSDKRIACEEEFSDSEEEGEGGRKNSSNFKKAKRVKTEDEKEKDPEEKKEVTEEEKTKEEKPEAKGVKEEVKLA

Consider `Cn1c(C(=O)CCCCCCC(=O)CS)cc2ccccc21` [Compound 166, 1-Mercapto-2,9-dioxo-9-(2-N-methylindolyl)-nonane], for which the results for the half-inhibitory concentration (IC50) in assay [1] and in assay [2] were 420 nM and 50 nM, respectively.

Consider `CC(=O)SCC(=O)CCCCCCC(=O)c1cc2ccccc2s1` [Compound 162, 1-Acetylthio-2,9-dioxo-9-(2-benzo[b]thiophene)-nonane], for which the results for the IC50 in assay [1] and in assay [2] were 35 nM and 40 nM, respectively.

For the compound `CSc1ncccc1C(=O)CCCCCCC(=O)NO` [Compound 105b], the IC50 in assay [1] stood at 20 nM. In addition, in assay [2], the “pooled HDACs percent inhibition @ 1 μM” value was found to be 40%@ 1 μM.

Consider `Nc1ccccc1NC(=O)NCCCCCC(=O)c1ccc(-c2ccccc2)cc1` [Compound 92, N-(2-Aminophenyl)-N′-[5-((4biphenyl)carbonyl)pentyl]urea], for which, in assay [1], the half-inhibitory concentration (IC50) came out at 15900 nM. Moreover, the “pooled HDACs percent inhibition” value in assay [2] stood at 0%.

Consider `COc1ccc2cc(C(=O)CCCCCCC(=O)NO)ccc2c1` [Compound 105a, N-Hydroxy-7-[2-(6-methoxy)naphthoyl]heptanamide], for which the IC50 in assay [1] came to 10 nM. Besides, the “pooled HDACs percent inhibition @ 1 μM” value in assay [2] is 83%@ 1 μM.

Turning to `O=C(CCCCCCC(=O)c1ccc(N2CCOCC2)cc1)NO` [Compound 138i, N-Hydroxy-7-[4-(N-morpholinyl)benzoyl]heptanamide], the IC50 in assay [1] was 33 nM; in assay [2], 100 nM.

As to `O=C(NCCCCCC(=O)c1ccc(-c2ccccc2)cc1)Nc1ccccc1O` [Compound 93, N-(2-Hydroxyphenyl)-N′-[5-((4-biphenyl)carbonyl)pentyl]urea], the IC50 in assay [1] worked out at 6400 nM. For the same compound, the “pooled HDACs percent inhibition” value in assay [2] came to 0%.

On to `O=C(CCCCCCC(=O)c1cnc2ccccc2c1)NO` [Compound 141b, N-Hydroxy-7-[(3-quinolinyl)carbonyl]heptanamide], for which, in assay [1], the IC50 was found to be 35 nM. For the same compound, the “pooled HDACs percent inhibition @ 1 μM” value in assay [2] was found to be 71%@ 1 μM.

As for `CSCC(=O)CCCCCCC(=O)c1ccccc1` [Compound 159b, 1-Methylthio-2,9-dioxo-9-phenyl-nonane], the IC50 in assay [1] came to 500 nM. Moreover, in assay [2] (@ 5 μM), the “pooled HDACs percent inhibition @ 5 μM” value came out at 14%@ 5 μM.

Consider `Nc1ccccc1NC(=O)CCCCCCC(=O)c1ccc(Br)cc1` [Compound 114, N-(2-Aminophenyl)-7-(4-bromobenzoyl)heptanamide], for which the IC50 in assay [1] is 6300 nM; in assay [2], more than 20000 nM.

For the compound `O=C(CCCCCCC(=O)c1ccc(Nc2ccccc2)cc1)NO` [Compound 138a, N-Hydroxy-7-[4-(N-phenyl)benzoyl]heptanamide], the IC50 in assay [1] is 4 nM. For the same compound, the “pooled HDACs percent inhibition @ 1 μM” value in assay [2] was 83%@ 1 μM.

Regarding `O=C(NCCCCCCC(=O)c1ccccc1)Nc1ccccc1O` [Compound 253], the concentration for half-maximal inhibition (IC50) in assay [1] was more than 20000 nM. Further, the “pooled HDACs percent inhibition” value in assay [2] worked out at 0%.

For `O=C(CCCCCCC(=O)c1ccccc1)CSC(=O)c1ccccc1` [Compound 159f, 1-Benzoylthio-2,9-dioxo-9-phenyl-nonane], the figures for the IC50 in assay [1] and in assay [2] were 700 nM and 350 nM, respectively.

In the case of `O=C(CCCCCCC(=O)c1cccnc1)NO` [Compound 141a1, N-Hydroxy-7-[(3-pyridyl)carbonyl]heptanamide], the IC50 in assay [1] amounted to 60 nM. Also, in assay [2], the “pooled HDACs percent inhibition @ 1 μM” value is reported as 22%@ 1 μM.

Turning to `CC(CCCCC(=O)c1ccc2ccccc2c1)CC(=O)NO` (stereo not drawn) [Compound 199, N-Hydroxy-3-methyl-7-(2-naphthoyl)heptanamide], the IC50 is 30 nM in assay [1] and 80 nM in assay [2].

In the case of `COC(C/C=C/C=C/C(=O)NO)c1ccc(N(C)C)cc1` (stereo not drawn) [Compound 17, N-Hydroxy7-methoxy-7-[4-(N,N-dimethylamino)phenyl]-2,4-heptadienamide], the half-inhibitory concentration (IC50) is 250 nM in assay [1] and 4000 nM in assay [2].

Turning to `Nc1ccccc1NC(=O)CCCCCCC(=O)c1ccc(-c2ccsc2)cc1` [Compound 117, N-(2-Aminophenyl)-7-[4-(3-thiophenyl)benzoyl]heptanamide], the IC50 in assay [1] came to 9000 nM. Also, in assay [2], the “pooled HDACs percent inhibition” value was found to be 0%.

`O=C(CCCCCCC(=NO)c1ccccc1)NO` [Compound 51a, N-Hydroxy-8-oximino-8-phenyloctanamide]: the values for the IC50 in assay [1] and in assay [2] were 100 nM and 350 nM, respectively.

As to `O=C(CCCCCCC(=NO)c1ccco1)NO` [Compound 51i, N-Hydroxy-8-oximino-8-(2-furanyl)octanamide], the results for the IC50 in assay [1] and in assay [2] were 100 nM and 900 nM, respectively.

On to `O=C(CCCCCCC(=NO)c1cc2ccccc2o1)NO` (mixture of isomers) [Compound 98, N-Hydroxy-8-(E)-oximino-8-(2-benzofuryl)octanamide], for which the half-inhibitory concentration (IC50) came to 30 nM in assay [1] and 40 nM in assay [2].

In the case of `CC(=O)SCC(=O)CCCCCCC(=O)c1cc2ccccc2n1C` [Compound 165, 1-Acetylthio-2,9-dioxo-9-(2-(N-methyl)indolyl)-nonane], the half-maximal inhibitory concentration (IC50) in assay [1] worked out at 90 nM; in assay [2] it was 40 nM.

With `Nc1ccccc1NC(=O)CCCCCCC(=NO)c1ccc2ccccc2c1` (mixture of isomers) [Compound 106, N-(2-Aminophenyl)-8-(E)-oximino-8-(2-naphthyl)octanamide], the IC50 was 4000 nM in assay [1] and more than 20000 nM in assay [2].

In the case of `O=C(CCCCCCC(=O)c1ccc(C(F)(F)F)cc1)NO` [Compound 52c, N-hydroxy-7-(4-trifluoromethylbenzoyl)heptanamide], the IC50 in assay [1] was 60 nM; in assay [2], 550 nM.

With `Nc1ccccc1NC(=O)NCCCCCCC(=O)c1ccccc1` [Compound 89, N-(2-Aminophenyl)-N′-[6-(benzoyl)hexyl]urea], the IC50 in assay [1] amounted to 16300 nM. Further, the “pooled HDACs percent inhibition” value in assay [2] was 0%.

For `COc1ccc(C(OC)C(C)(C)CCCCC(=O)NO)cc1` (stereo not drawn) [Compound 28, N-Hydroxy-6,6-dimethyl-7-methoxy-7-(4-methoxyphenyl)heptanamide], the IC50 in assay [1] came out at 100 nM; in assay [2] it was 4000 nM.

Turning to `O=C(CCCCCC(=O)c1cc2ccccc2[nH]1)NO` [Compound 112, N-Hydroxy-6-[(2-indolyl)carbonyl]hexanamide], the IC50 in assay [1] stood at 39 nM; in assay [2] it was 250 nM.

As to `COC(C/C=C/C=C/C(=O)Nc1ccccc1N)c1ccccc1` (stereo not drawn) [Compound 19, N-(2-Aminophenyl)-7-methoxy-7-phenyl-2,4-heptadienamide], the IC50 is less than 20000 nM in assay [1] and more than 100000 nM in assay [2].

Regarding `CC(=O)SCC(=O)CCCCCC(=O)c1cc2ccccc2s1` [Compound 160, 1-Acetylthio-2,8dioxo-8-(2-benzo[b]thiophene)-octane], the half-inhibitory concentration (IC50) in assay [1] was 130 nM; in assay [2], 80 nM.

As to `O=C(CCCCCCC(=O)c1ccc(-c2ccccc2)cc1)Nc1ccccc1O` [Compound 74, N-(2-Hydroxyphenyl)-7-[(4-biphenyl)carbonyl]heptanamide], the IC50 in assay [1] came out at 7800 nM. In addition, the “pooled HDACs percent inhibition” value in assay [2] amounted to 0%.

For `O=C(CCCCCCC(=O)c1ccco1)NO` [Compound 52i, N-hydroxy-7-(2-furanoyl)-heptanamide], the IC50 worked out at 100 nM in assay [1] and 3000 nM in assay [2].

Turning to `Cn1c(C(=O)CCCCCCC(=O)NO)cc2ccccc21` [Compound 103, N-Hydroxy-7-[2-((N-methyl)indolyl)carbonyl]heptanamide], the results for the IC50 in assay [1] and in assay [2] were 50 nM and 100 nM, respectively.

In the case of `O=C(CS)CCCCCC(=O)c1cc2ccccc2s1` [Compound 161, 1-Mercapto-2,8-dioxo-8-(2-benzo[b]thiophene)-octane], the IC50 in assay [1] was determined as 71 nM; in assay [2], 94 nM.

In the case of `COc1ccc(C(=O)CCCCCCC(=O)Nc2ccccc2N)cc1` [Compound 53b, N-(2-Aminophenyl)-7-(p-anisoyl)heptanamide], the concentration for half-maximal inhibition (IC50) in assay [1] was found to be 1000 nM. The “pooled HDACs percent inhibition” value in assay [2] turned out to be 0%.

Consider `COc1ccc(C(=O)C(C)(C)CCCCC(=O)NO)cc1` [Compound 58, N-Hydroxy-6-methyl-6-(4-methoxybenzoyl)-heptanamide], for which the results for the IC50 in assay [1] and in assay [2] were 250 nM and 3000 nM, respectively.

On to `O=C(CCCCCC/C(=N\O)c1cc2ccccc2s1)NO` [Compound 99, N-Hydroxy-8-(Z)-oximino-8-(2-benzo[b]thiophene)octanamide], for which the concentration for half-maximal inhibition (IC50) stood at 8 nM in assay [1] and 35 nM in assay [2].

As for `O=C(CCCCCCC(=O)c1ccccc1)Nc1cccnc1` [Compound 252], in assay [1], the concentration for half-maximal inhibition (IC50) was more than 20000 nM. The “pooled HDACs percent inhibition” value in assay [2] was determined as 0%.

Take `Nc1ccccc1NC(=O)CCCCCCC(=O)c1ccc2ccccc2c1` [Compound 63, N-(2-Aminophenyl)-7-(2-naphthoyl)heptanamide]: the 50% inhibitory concentration (IC50) was 2200 nM in assay [1] and more than 20000 nM in assay [2].

In the case of `O=C(CCCCCCC(=O)c1cccc2ccccc12)NO` [Compound 52f, N-hydroxy-7-(1-naphthoyl)heptanamide], the IC50 in assay [1] amounted to 10 nM; in assay [2], 550 nM.

Turning to `O=C(CCCCCCC(=O)c1ccc(Oc2ccccc2)cc1)NO` [Compound 104, N-Hydroxy-7-(4-phenoxybenzoyl)heptanamide], the concentration for half-maximal inhibition (IC50) in assay [1] is 160 nM. For the same compound, in assay [2], the “pooled HDACs percent inhibition @ 1 μM” value is 61%@ 1 μM.

Source of the values: patent publication US7288567B2, “Inhibitors of histone deacetylase” (Methylgene Inc., priority 2000, dated 2007).
